Measured values: ChEMBL document CHEMBL3588817, “Discovery of 4,5,6,7-Tetrahydrobenzo[1,2-d]thiazoles as Novel DNA Gyrase Inhibitors Targeting the ATP-Binding Site” (J Med Chem, 2015)
Converted amounts (≈) assume the structure as drawn.

Key:
DNA gyrase [1] = molecular target: T1, DNA gyrase (Escherichia coli, UniProt P0AES4+P0AES6); test: Inhibition of Escherichia coli DNA gyrase using relaxed pNO1 plasmid and biotinylated oligonucelotide incubated for 30 mins by fluorescence based DNA super-coiling assay; type: protein-complex assay
[2] = molecular target: DNA gyrase (Staphylococcus aureus) (UniProt P0A0K8+P20831); test: Inhibition of Staphylococcus aureus DNA gyrase assessed as residual enzyme activity at 100 uM using relaxed pNO1 plasmid and biotinylated oligonucelotide incubated for 30 mins by fluorescence based DNA super-coiling assay; type: protein-complex assay
Escherichia coli [3] = test: Inhibition of Escherichia coli DNA topoisomerase 4 assessed as residual enzyme activity at 100 uM using relaxed pNO1 plasmid and biotinylated oligonucelotide incubated for 30 mins by fluorescence based DNA relaxation assay
[4] = molecular target: Topoisomerase IV (Staphylococcus aureus) (UniProt P0C1U9+P0C1S7); test: Inhibition of Staphylococcus aureus DNA topoisomerase 4 assessed as residual enzyme activity at 100 uM using relaxed pNO1 plasmid and biotinylated oligonucelotide incubated for 30 mins by fluorescence based DNA relaxation assay; type: protein-complex assay
Escherichia coli [5] = test: Antibacterial activity against wild type Escherichia coli ATCC 25922 by broth microdilution method; type: functional
Escherichia coli [6] = test: Antibacterial activity against efflux deficient Escherichia coli tolC::Tn10 lacking functional tolC gene by broth microdilution method
Escherichia coli [7] = test: Antibacterial activity against Escherichia coli imp4213::Tn10 by broth microdilution method; type: functional
Escherichia coli [8] = test: Antibacterial activity against wild type Escherichia coli ATCC 25922 assessed as inhibition of microbial growth at 50 uM by broth microdilution method; type: functional; details: read-out: GI
Pseudomonas aeruginosa [9] = test: Antibacterial activity against Pseudomonas aeruginosa ATCC 27853 assessed as inhibition of microbial growth at 50 uM by broth microdilution method; type: functional; details: read-out: GI
Enterococcus faecalis [10] = test: Antibacterial activity against Enterococcus faecalis ATCC 29212 assessed as inhibition of microbial growth at 50 uM by broth microdilution method; type: functional; details: read-out: GI
Staphylococcus aureus [11] = test: Antibacterial activity against Staphylococcus aureus 25923 assessed as inhibition of microbial growth at 50 uM by broth microdilution method; type: functional; details: read-out: GI
Escherichia coli [12] = test: Antibacterial activity against wild type Escherichia coli ATCC 25922 assessed as inhibition of microbial growth by broth microdilution method; type: functional
Pseudomonas aeruginosa [13] = test: Antibacterial activity against Pseudomonas aeruginosa ATCC 27853 assessed as inhibition of microbial growth by broth microdilution method; type: functional
Enterococcus faecalis [14] = test: Antibacterial activity against Enterococcus faecalis ATCC 29212 assessed as inhibition of microbial growth by broth microdilution method; type: functional
Staphylococcus aureus [15] = test: Antibacterial activity against Staphylococcus aureus 25923 assessed as inhibition of microbial growth by broth microdilution method; type: functional
DNA gyrase [16] = molecular target: DNA gyrase (Staphylococcus aureus, UniProt P0A0K8+P20831); test: Inhibition of Staphylococcus aureus DNA gyrase using relaxed pNO1 plasmid and biotinylated oligonucelotide incubated for 30 mins by fluorescence based DNA super-coiling assay; type: protein-complex assay
Topoisomerase IV = Topoisomerase IV (Staphylococcus aureus, UniProt P0C1S7+P0C1U9); test: Inhibition of Staphylococcus aureus DNA topoisomerase 4 using relaxed pNO1 plasmid and biotinylated oligonucelotide incubated for 30 mins by fluorescence based DNA relaxation assay; type: protein-complex assay
DNA gyrase [17] = molecular target: T1, DNA gyrase; test: Binding affinity to Escherichia coli DNA gyrase subunit B N-terminal 24 kDa domain by SPR assay; type: protein-complex assay

IC50 (DNA gyrase [1]) [nM] | Activity [2] [%] | Activity (Escherichia coli [3]) [%] | Activity [4] [%] | MIC (Escherichia coli [5]) [µg/mL] | MIC (Escherichia coli [6]) [µg/mL] | MIC (Escherichia coli [7]) [µg/mL] | MIC (Escherichia coli [12]) [µM] | MIC (Pseudomonas aeruginosa [13]) [µM] | MIC (Enterococcus faecalis [14]) [µM] | MIC (Staphylococcus aureus [15]) [µM] | IC50 (DNA gyrase [16]) [µM] | Kd (DNA gyrase [17]) [nM] | Compound | inhibition of growth at 50 µM (Escherichia coli [8]) [%] | inhibition of growth at 50 µM (Pseudomonas aeruginosa [9]) [%] | inhibition of growth at 50 µM (Enterococcus faecalis [10]) [%] | inhibition of growth at 50 µM (Staphylococcus aureus [11]) [%] | IC50 (Topoisomerase IV) [µM]
8100 | 95 | 99 | 79 | > 256 | > 256 | > 256 | > 125 | > 125 | > 125 | > 125 | – | – | O=C(O)CCC(=O)Nc1nc2c(s1)C[C@@H](NC(=O)c1cc3ccccc3[nH]1)CC2 | < 50 | < 50 | < 50 | < 50 | –
9100 | 64 | 101 | 85 | > 256 | 64 (≈ 123 µM) | 256 (≈ 492 µM) | > 125 | > 125 | > 125 | > 125 | – | – | COC(=O)CC(=O)Nc1nc2c(s1)C[C@H](NC(=O)c1cc(Br)c(Br)[nH]1)CC2 | < 50 | < 50 | < 50 | < 50 | –
7700 | 79 | 47 | 99 | > 256 | > 256 | 128 (≈ 333 µM) | > 125 | > 125 | > 125 | > 125 | – | – | O=C(O)C(=O)Nc1nc2c(s1)C[C@@H](NC(=O)c1cc3ccccc3[nH]1)CC2 | < 50 | < 50 | < 50 | < 50 | –
890 | 86 | 100 | 93 | > 256 | > 256 | > 256 | > 125 | > 125 | > 125 | > 125 | – | – | COC(=O)CCC(=O)Nc1nc2c(s1)C[C@@H](NC(=O)c1cc(Cl)c(Cl)[nH]1)CC2 | < 50 | < 50 | < 50 | < 50 | –
2900 | 96 | 102 | 98 | > 256 | > 256 | > 256 | > 125 | > 125 | > 125 | > 125 | – | – | Nc1ncc2c(n1)CCC(NC(=O)c1cc(Br)c(Br)[nH]1)C2 (stereo not drawn) | < 50 | < 50 | < 50 | < 50 | –
150 | – | 98 | 101 | – | – | – | > 125 | > 125 | > 125 | > 125 | 26 | – | CC(=O)Nc1nc2c(s1)C[C@@H](NC(=O)c1cc(Br)c(Br)[nH]1)CC2 | < 50 | < 50 | < 50 | < 50 | –
2600 | 71 | 97 | 98 | > 256 | 64 (≈ 124 µM) | 256 (≈ 497 µM) | > 125 | > 125 | > 125 | > 125 | – | – | COC(=O)CC(=O)Nc1ncc2c(n1)CCC(NC(=O)c1cc(Br)c(Br)[nH]1)C2 (stereo not drawn) | < 50 | < 50 | < 50 | < 50 | –
400 | 63 | 97 | 101 | > 256 | 32 (≈ 74.2 µM) | 32 (≈ 74.2 µM) | > 125 | > 125 | > 125 | > 125 | – | 50 | COC(=O)CC(=O)Nc1nc2c(s1)C[C@@H](NC(=O)c1cc(Cl)c(Cl)[nH]1)CC2 | < 50 | < 50 | < 50 | < 50 | –
41000 | 118 | 96 | 92 | > 256 | 64 (≈ 152 µM) | 64 (≈ 152 µM) | > 125 | > 125 | > 125 | > 125 | – | – | Nc1nc2c(s1)C[C@H](NC(=O)c1cc(Br)c(Br)[nH]1)CC2 | < 50 | < 50 | < 50 | < 50 | –
300 | – | 72 | 97 | > 256 | > 256 | > 256 | > 125 | > 125 | > 125 | > 125 | 10 | – | O=C(O)CCC(=O)Nc1nc2c(s1)C[C@@H](NC(=O)c1cc(Cl)c(Cl)[nH]1)CC2 | < 50 | < 50 | < 50 | < 50 | –
500 | 108 | 96 | 102 | > 256 | > 256 | > 256 | > 125 | > 125 | > 125 | > 125 | – | – | O=C(O)CC(=O)Nc1nc2c(s1)C[C@H](NC(=O)c1cc(Br)c(Br)[nH]1)CC2 | < 50 | < 50 | < 50 | < 50 | –
1700 | 71 | 97 | 98 | > 256 | 128 (≈ 253 µM) | > 256 | > 125 | > 125 | > 125 | > 125 | – | – | NC(=O)CC(=O)Nc1nc2c(s1)C[C@@H](NC(=O)c1cc(Br)c(Br)[nH]1)CC2 | < 50 | < 50 | < 50 | < 50 | –
12000 | 85 | 97 | 98 | > 256 | 64 (≈ 193 µM) | 64 (≈ 193 µM) | > 125 | > 125 | > 125 | > 125 | – | – | Nc1nc2c(s1)C[C@@H](NC(=O)c1cc(Cl)c(Cl)[nH]1)CC2 | < 50 | < 50 | < 50 | < 50 | –
93 | 113 | 97 | 99 | > 256 | 32 (≈ 59.9 µM) | 64 (≈ 120 µM) | > 125 | > 125 | > 125 | > 125 | – | 150 | COC(=O)CCC(=O)Nc1nc2c(s1)C[C@@H](NC(=O)c1cc(Br)c(Br)[nH]1)CC2 | < 50 | < 50 | < 50 | < 50 | –
14000 | 110 | 96 | 97 | – | – | – | > 125 | > 125 | > 125 | > 125 | – | – | O=C(O)CC(=O)Nc1nc2c(s1)C[C@@H](NC(=O)c1cc(Br)c[nH]1)CC2 | < 50 | < 50 | < 50 | < 50 | –
25000 | 100 | 95 | 104 | – | – | – | > 125 | > 125 | > 125 | > 125 | – | – | COC(=O)CC(=O)Nc1nc2c(s1)C[C@@H](NC(=O)c1cc(Br)c[nH]1)CC2 | < 50 | < 50 | < 50 | < 50 | –

Compound | IC50 (DNA gyrase [1]) [nM] | Activity [2] [%] | Activity (Escherichia coli [3]) [%] | Activity [4] [%] | MIC (Escherichia coli [5]) [µg/mL] | MIC (Escherichia coli [6]) [µg/mL] | MIC (Escherichia coli [7]) [µg/mL] | MIC (Escherichia coli [12]) [µM] | MIC (Pseudomonas aeruginosa [13]) [µM] | MIC (Enterococcus faecalis [14]) [µM] | MIC (Staphylococcus aureus [15]) [µM] | IC50 (DNA gyrase [16]) [µM] | Kd (DNA gyrase [17]) [nM] | inhibition of growth at 50 µM (Escherichia coli [8]) [%] | inhibition of growth at 50 µM (Pseudomonas aeruginosa [9]) [%] | inhibition of growth at 50 µM (Enterococcus faecalis [10]) [%] | inhibition of growth at 50 µM (Staphylococcus aureus [11]) [%] | IC50 (Topoisomerase IV) [µM]
O=C(O)C(=O)Nc1nc2c(s1)C[C@@H](NC(=O)c1cc(Cl)c(Cl)[nH]1)CC2 | 590 | – | 82 | – | > 256 | > 256 | > 256 | > 125 | > 125 | > 125 | > 125 | 300 | – | < 50 | < 50 | < 50 | < 50 | 170
